The term melting point denotes the temperature, or range, at which the solid turns liquid.

Turning to `O=C(NS(=O)(=O)c1ccc(Cl)cc1)N1CC(c2ccccc2)C(c2ccc(Cl)cc2)=N1` (stereo not drawn), the melting point was in the range of 211 to 214 °C. The figure for `Cc1ccc2c(Cl)cc(C(=O)NCCCc3ccccc3)c(O)c2n1` is 109 to 111 °C; for `Nc1cccc(-n2c(=O)c(CCC(O)c3ccncc3)cc3cccnc32)c1` (stereo not drawn) it is 209 to 211 °C. The figure for `CCc1c(Oc2cnc(N)nc2N)cc(Br)c2c1OCCO2` is 291 to 293 °C.

`CCN(CC)c1ccc(N=Nc2ccc(OCCOC)c(S(=O)(=O)Cl)c2)cc1` yielded a melting point of 103 to 104 °C. The figure for `CCCCCCc1ccc(C2CN=C(NC(=O)OC)N2C)cc1` (stereo not drawn) is 115 to 116 °C; for `CCOC(=O)N1CCSC1COc1ccccc1OC` (single isomer, unassigned; (-)) it is 64 to 65 °C; for `COC(=O)C(=O)Nc1ccc(-c2ccccc2S(=O)(=O)NC(C)(C)C)cc1` it is 132 °C.

`CCc1nc2ccccc2c(N)c1C(C)=O` returned a melting point of 145 to 148 °C. Compound `CCOC(=O)C=C1NC(C)=C(C(=O)OCC)C(c2ccccc2C(F)(F)F)C1C(=O)OCC` (stereo not drawn) displayed a melting point of 98 to 99 °C. The figure for `O=C(CCn1cnc2c(=O)[nH]cnc21)NC(Cc1ccccc1)C(=O)O` (stereo not drawn) is 240 to 242 °C; for `CCCCCCCc1ccc(C=CC(=O)c2ccc(OCC=C(C)C)cc2OCC(=O)O)cc1` it is 106 to 107 °C; for `Nc1nc2c(s1)CC(CCN1CCN(c3ccccn3)CC1)CC2` (stereo not drawn) it is 176 to 190 °C.

Compound `CC1(C)Oc2cc3nonc3cc2C(N2CCC(=O)CC2=O)C1O` (stereo not drawn) came in with a melting point of 220 to 223 °C. The same measure for `O=C(N[C@H](Cc1ccc(C(F)(F)F)cc1)[C@@H](O)c1cccc(Oc2ccccc2)c1)c1ccc(F)c2ccccc12` (racemic): 184 to 185 °C. As to `CCOC(=O)c1c(Cl)c2cc(F)ccc2n(Cc2ccccc2)c1=O`, the melting point turned out to be 118 °C. The compound `O=c1c(CO)coc2cc(OCCCN3CCC(c4noc5cc(F)ccc45)CC3)ccc12` had a melting point of 200 to 202 °C. The figure for `OCc1cccnc1Nc1cccc(C(F)(F)F)c1` is 102 °C; for `O=C1CN(C/C=C/c2ccc(Cl)cc2)CCN1c1cc(F)ccc1[N+](=O)[O-]` it is 57 °C. The figure for `C#CCNC(=O)Oc1cc(-n2c(=O)cc(C(F)(F)F)n(C)c2=O)c(F)cc1Cl` is 144 to 146 °C.

With `CCOc1ccc(O)c2c1C(=O)N(CSc1nnnn1-c1ccccc1)S2(=O)=O`, the melting point lay within 178 to 180 °C.

Compound `COC(=O)c1ccc(N2CCOCC2)cc1` came in with a melting point of 152 to 154 °C. The figure for `COc1cc(OC)c2c(C)c(C(C)=O)c(=O)oc2c1` is 166 to 167 °C; for `COC1(OC)C(=O)N(C)c2ccc(I)cc21` it is 101 to 103 °C. The same measure for `Cc1oc(-c2ccccc2)nc1COc1ccc(CON)cc1`: 68 to 69 °C; for `CCCCCCCCCCCCCCc1cc(C(=O)OCC)c[nH]1`: 59 to 62 °C; for `Cc1cc(C2C=CCC2)c(S(C)(=O)=O)cc1C(=O)N=C(N)N` (stereo not drawn): 212 to 214 °C. The same measure for `COc1ccc(-n2c(-c3ccc(Cl)cc3Cl)nc(C(=O)NC3CCCCC3)c2C)cc1`: 160 to 161 °C. `Oc1ccc(N2CCN(c3ccc(C(F)(F)F)cn3)CC2)cc1` gave a melting point of 178 to 179 °C. The same measure for `CC(=O)c1ccc(-c2cc(-c3nc4ccccc4c(=O)n3-c3ccc(Cl)cc3)sc2N2CCOCC2)cc1`: 222 to 226 °C; for `O=c1oc(-c2ccc(S(=O)c3ccccc3)cc2)cc(O)c1SCCc1ccccc1` (stereo not drawn): 171 to 173 °C. The figure for `COc1cccc(-c2cc(=O)c3cc(OCCCCCN4CCC(O)CC4)ccc3o2)c1` is 115 to 116 °C; for `CCOC(=O)C1=C(COCC2(C)CO2)NC(C)=C(C(=O)OC)C1c1cccc(Cl)c1Cl` (stereo not drawn) it is 107 to 112 °C.

For `Cc1ccc(NC(=O)c2cc(Cl)ccc2NCC2CCN(C3CCCCCC3)CC2)nc1`, the melting point lay within 159 to 161 °C. The same measure for `O=C(Nc1nnn(C(F)F)n1)C(c1ccccc1)c1ccccc1`: 143 to 145 °C; for `COc1cccc(-c2nc3sccn3c2-c2ccnc(N[C@@H]3CCCN(C[C@@H](O)CO)C3)n2)c1`: 106 to 108 °C; for `Cc1cccc(C2=C(c3ccc(S(C)(=O)=O)cc3)CC(CN(C)C)C2O)c1` (stereo not drawn): 165 to 167 °C. The same measure for `CC(=O)C(=Cc1cccc([N+](=O)[O-])c1)C(=O)OC(C)C(C)(C)NCCC(c1ccccc1)c1ccccc1` (stereo not drawn): 65 to 80 °C; for `c1ccc(CC2=NOC3(CCNCC3)C2)cc1`: 51 to 54 °C. The figure for `CC1CN(c2ccc(C(N)=O)cc2)CC(C)N1CCC1OCCc2ccccc21` (stereo not drawn) is 206 to 207 °C; for `CSCc1cn(C)c2ccc(Cl)cc2c1=O` it is 148 to 150 °C; for `Cc1cc(C(=O)O)n(CC(F)(F)F)n1` it is 135 to 139 °C. The compound `NCc1cccc(OCCC(=O)O)c1` registered a melting point of 134 to 138 °C. The figure for `CN1CCC(O)(C2SCCCS2)CC1` is 115 to 120 °C.

Regarding `CS(=O)(=O)c1[nH]nc(-c2ccc(F)cc2)c1-c1ccncc1`, the melting point was 297 to 300 °C. The same measure for `Cc1ccc2c3c(c(=O)oc2c1)CN(Cc1ccc(Cl)cc1)CC3`: 147 to 149 °C; for `O=C(Nc1cccnn1)N1CCN(c2ccnc(-c3ccc(F)cc3F)c2)CC1`: 189 to 190 °C; for `COC(=O)c1sccc1S(=O)(=O)Nc1onc(C)c1Br`: 188 to 194 °C. `O=C(Nc1ccc(-n2nc(C(F)(F)F)cc2C2CC2)c(F)c1)c1c(Cl)cncc1Cl`: the melting point was 218 to 223 °C. The figure for `COc1cc(OCc2ccccn2)ccc1/C=C/c1cc(/C=C/c2ccc3ccn(Cc4ccccc4)c3c2)n[nH]1` is 89 to 93 °C. The figure for `CCN(CC)C(=O)n1ccc(S(=O)(=O)c2cccc(F)c2F)n1` is 78 to 81 °C; for `CC1(C)CC(=O)c2ccc(OCCn3ccnc3)cc2O1` it is 84 to 86 °C; for `CCCc1nnc2c(=O)n(C)c3ccc(OC)cc3n12` it is 219 to 220 °C.

Regarding `COc1ccc(/C=C/CO)cc1OCc1nc(-c2ccccc2)oc1C`, the melting point is 137 to 138 °C. The figure for `CCc1c([N+](=O)[O-])c(C(N)=O)nn1CCN1CCOCC1` is 132 to 133 °C; for `CCCNC(=O)c1nc(-c2ccccc2)c(-c2ccc(=O)n(C)n2)s1` it is 108 to 109 °C.

Turning to `COc1cc(O)c(C(=O)C=Cc2ccc(C)cc2)c(OC)c1`, the melting point turned out to be 130 °C.

`O=C(O)[C@@H]1CCC(=O)N1C(=O)c1ccccc1` registered a melting point of 140 to 141 °C. The same measure for `O=C(O)Cc1nn(-c2nc3c(Cc4ccc5scnc5c4)cccc3s2)c(=O)c2ccccc12`: 203 to 204 °C; for `CC12CCC(C(=O)O)=CC1=CCC1C2CCC2(C)C(C(=O)CCc3ccccc3)CCC12` (stereo not drawn): 218 to 220 °C; for `N#Cc1ccc2c3ccc(C#N)c4c(C#N)ccc(c5ccc(Br)c1c52)c43`: 235 to 237 °C.

As to `CC1(C)Oc2ccncc2C2OC21` (stereo not drawn), the melting point is 208 to 210 °C. The figure for `COc1cccc(Cc2cnc(-c3ccccc3)c(-c3ccccc3)n2)c1` is 65 to 66 °C.

These data come from a melting point compilation (Tetko et al.; mined from patent text by program, amines drawn as free bases though some values may be those of a salt).
